Consider eleven compounds from ChEMBL document CHEMBL3352162, “Synthesis of bi-/tricyclic azasugars fused thiazinan-4-one and their HIV-RT inhibitory activity” (Bioorg Med Chem Lett, 2014).

By IC50 is commonly meant the concentration needed to halve the response being measured. A low value points to greater potency.

In the assay the target is Human immunodeficiency virus type 1 reverse transcriptase (Human immunodeficiency virus 1, UniProt Q72547). The assay can be described thus: Inhibition of HIV-1 reverse transcriptase after 1 hr by ELISA plate reader analysis.
In turn, `O=C1c2ccccc2S[C@H]2[C@@H](O)[C@@H](O)[C@H](O)CN12` gave a concentration for half-maximal inhibition (IC50) of 1.58 µM.
For the compound `O=C1c2ccccc2S[C@@H]2[C@@H](O)[C@@H](O)[C@H](O)CN12`, 3.83 µM corresponded to half-maximal inhibition (IC50).
For the compound `O=C1CCS[C@H]2[C@@H](O)[C@@H](O)[C@H](O)[C@H](CO)N12`, the IC50 was determined as 12.9 µM.
`O=C1c2ccccc2S[C@H]2[C@@H](O)[C@@H](O)[C@H](O)[C@H](CO)N12`: half-maximal inhibition (IC50) was put at 0.49 µM.
As for `O=C1c2cccnc2S[C@H]2[C@@H](O)[C@@H](O)[C@H](O)[C@H](CO)N12`, the IC50 is 31.4 µM.
To `O=C1CCS[C@@H]2[C@@H](O)[C@@H](O)[C@H](O)[C@@H](CO)N12` belongs 1.41 µM; to `O=C1c2cccnc2S[C@@H]2[C@@H](O)[C@@H](O)[C@H](O)[C@@H](CO)N12`, 53.8 µM; to `O=C1CCS[C@@H]2[C@@H](O)[C@@H](O)[C@H](O)[C@H](CO)N12`, 6.02 µM.
The compound `O=C1c2ccccc2S[C@@H]2[C@@H](O)[C@@H](O)[C@H](O)[C@H](CO)N12` yielded an IC50 of 1.32 µM.
Compound `O=C1c2cccnc2S[C@@H]2[C@@H](O)[C@@H](O)[C@H](O)[C@H](CO)N12` had a half-inhibitory concentration (IC50) of 26.8 µM.
As to `O=C1c2ccccc2S[C@@H]2[C@@H](O)[C@@H](O)[C@H](O)[C@@H](CO)N12`, the IC50 is 19.7 µM.
